{"source": "patent US20160209428A1", "about": "“DIAGNOSTIC AND PREDICTIVE METABOLITE PATTERNS FOR DISORDERS AFFECTING THE BRAIN AND NERVOUS SYSTEM” (THE REGENTS OF THE UNIVERSITY OF CALIFORNIA, priority 2013, published 2016)", "key": {"[1]": {"system": "maternal immune activation (MIA) mouse model", "assay": "Plasma metabolomics after single-dose suramin or saline, MIA model", "type": "in vivo", "details": "for Pathway normalized by single-dose suramin treatment: MIA mice", "experimental": "Only male animals that had been behaviorally evaluated were tested. Samples were analyzed on an AB SCIEX QTRAP 5500 triple quadrupole mass spectrometer equipped with a Turbo V electrospray ionization source, Shimadzu LC-20A UHPLC system and a PAL CTC autosampler (AB SCIEX). […] Plasma was separated by centrifugation at 600 g×5 min at 20° C. within 1 h of collection. Fresh lithium-heparin plasma was transferred to labeled tubes for storage at −80° C. for analysis. Typically, 45 μl of plasma was thawed on ice and transferred to a 1.7-ml Eppendorf tube. Two and one-half (2.5) microliters of a cocktail containing 35 commercial stable isotope internal standards and 2.5 μl of 310 stable isotope internal standards that were custom-synthesized in Escherichia coli and Saccharomyces cerevisiae by metabolic labeling with ^13C-glucose and ^13C-bicarbonate were added, mixed and incubated for 10 min at 20° C. to permit small molecules and vitamins in the internal standards to associate with plasma-binding proteins. Macromolecules (protein, DNA, RNA and so on) were precipitated by extraction with 4 volumes (200 μl) of cold (−20° C.), acetonitrile:methanol (50:50) (LCMS grade, Cat no. LC015-2.5 and GC230-4, Burdick & Jackson, Honeywell, Muskegon, Mich., USA), vortexed vigorously and incubated on crushed ice for 10 min, and then removed with centrifugation at 16000 g×10 min at 4° C. The supernatants containing the extracted metabolites and internal standards in the resulting 40:40:20 solvent mix of acetonitrile:methanol:water were transferred to labeled cryotubes and stored at −80° C. for LC-MS/MS (liquid chromatography-tandem mass spectrometry) analysis.\nLC-MS/MS analysis was performed by MRM under the Analyst v1.6.1 software control in both negative and positive modes with rapid polarity switching (50 ms). Nitrogen was used for curtain gas (set to 30), collision gas (set to high) and ion source gases 1 and 2 (set to 35). The source temperature was 500° C. Spray voltage was set to −4500V in negative mode and to 5500V in positive mode. The values for Q1 and Q3 mass-to-charge ratios (mz−1), declustering potential, entrance potential, collision energy and collision cell exit potential were determined and optimized for each MRM for each metabolite. Ten microliters of extract were injected with PAL CTC autosampler into a 250 mm×2.1 mm, 5-μm Luna NH2 aminopropyl HPLC column (Phenomenex) held at 25° C. for chromatographic separation. […] The flow rate was 300 μl min^−1. All the samples were kept at 4° C. during analysis. The chromatographic peaks were identified using MultiQuant v2.1.1 (AB SCIEX), confirmed by manual inspection and the peak areas were integrated. The median of the peak area of stable isotope internal standards was calculated and used for the normalization of metabolite concentration across the samples and batches. N=6, 6.5-month-old males per group. Metabolite data were log-transformed before multivariate and univariate analyses.\nGroup means and s.e.m. are reported. Behavioral data involving more than two groups were analyzed by two-way analysis of variance (ANOVA) and one-way ANOVAs (GraphPad Prism 5.0d, GraphPad Software Inc., La Jolla, Calif., USA). Pair-wise post hoc testing was performed by the method of Tukey. Repeated measures ANOVA with prenatal treatment and drug as between subject factors and stimulus (mouse/cup) on time spent with mouse or cup was used as an additional test of social preference. Student's t-test was used for comparisons involving the two groups. Significance was set at P<0.05. Bonferroni post hoc correction was used to control for multiple hypothesis testing when t-tests were used to test social preference in two or more experimental groups. Metabolomic data were analyzed using multivariate partial least squares discriminant analysis, Ward hierarchical clustering and univariate one-way ANOVA with pairwise comparisons and post hoc correction by Fisher's least significant difference test in MetaboAnalyst."}, "[2]": {"details": "mice, after a single dose; cited from earlier work"}, "[3]": {"system": "maternal immune activation (MIA) mouse model", "assay": "Social approach (social preference), MIA model", "type": "in vivo", "experimental": "To initiate the MIA model, pregnant dams were given two intraperitoneal injections of Poly(I:C) (Potassium salt; Sigma-Aldrich, St. Louis, Mo., USA, Cat no. P9582; >99% pure; <1% mononucleotide content). These were quantified by UV spectrophotometry. One unit (U) of poly(IC) was defined as 1 absorbance unit at 260 nm. Typically, 1U=12 μg of RNA. 0.25U/g [3 mg kg^−1] of poly(IC) was given on E12.5 and 0.125U g^−1 (1.5 mg kg^−1) on E17.5 as previously described. Contemporaneous control pregnancies were produced by timed matings and randomized assignment of pregnant dams to saline injection (5 μl g^−1 intraperitoneally (i.p.)) on E12.5 and E17.5.\nOffspring of timed matings were weaned at 3-4 weeks of age into cages of two to four animals. No mice were housed in isolation. Only males were evaluated in these studies. Littermates were identified by ear tags and distributed into different cages in order to minimize litter and dam effects. To avoid chance differences in groups selected for single-dose treatment, the saline and poly(IC) exposure groups were each balanced according to their social approach scores at 2.25 months. […] Beginning 2 days later, behaviors were evaluated. […]\nSocial behavior in mice can be quantified as the time spent interacting with a novel (‘stranger’) mouse compared with the total time spent interacting with either a mouse or a novel inanimate object."}, "[4]": {"system": "maternal immune activation (MIA) mouse model", "assay": "T-maze spontaneous alternation, MIA model", "type": "in vivo", "details": "MIA animals", "experimental": "Novelty preference was tested as spontaneous alternation behavior in the T-maze. […] (N=8-13, 5.25-month-old males per group).\nNovelty preference is an innate feature of normal rodent and human behavior and a predictor of socialization and communication growth in children with ASD. The loss or suppression of novelty preference in children with ASD is associated with the phenomenon known as insistence on sameness. Preference for novelty was estimated as spontaneous alternation behavior in the T-maze. The T-maze can also be used to estimate spatial working memory, especially when food-motivated. […] These deficits were normalized after a single dose of suramin."}}, "note": "“Also recorded” adds a separate entry of the source.", "data": [{"smiles": "Cc1ccc(C(=O)Nc2ccc(S(=O)(=O)O)c3cc(S(=O)(=O)O)cc(S(=O)(=O)O)c23)cc1NC(=O)c1cccc(NC(=O)Nc2cccc(C(=O)Nc3cc(C(=O)Nc4ccc(S(=O)(=O)O)c5cc(S(=O)(=O)O)cc(S(=O)(=O)O)c45)ccc3C)c2)c1", "note": "[Suramin, suramin]", "values": [{"measurement": "Pathways normalized by single-dose suramin treatment, all disturbed pathways", "setting": "[1]; 17/18 pathways disturbed in the MIA model, plasma", "value": "94% (17/18)"}, {"measurement": "Pathway normalized by single-dose suramin treatment", "setting": "[1]; Amino-sugar and galactose metabolism, plasma", "value": "Yes (1/1)"}, {"measurement": "Pathway normalized by single-dose suramin treatment", "setting": "[1]; Bile salt metabolism, plasma", "value": "No (0/3)"}, {"measurement": "Pathway normalized by single-dose suramin treatment", "setting": "[1]; Biopterin, neopterin, molybdopterin metabolism, plasma", "value": "Yes (1/1)"}, {"measurement": "Pathway normalized by single-dose suramin treatment", "setting": "[1]; Cholesterol, cortisol, steroid metabolism, plasma", "value": "Yes (4/4)"}, {"measurement": "Pathway normalized by single-dose suramin treatment", "setting": "[1]; GABA, glutamate, arginine, omithine, proline metabolism, plasma", "value": "Yes (1/1)"}, {"measurement": "Pathway normalized by single-dose suramin treatment", "setting": "[1]; Glycolysis and gluconeogenesis, plasma", "value": "Yes (3/3)"}, {"measurement": "Pathway normalized by single-dose suramin treatment", "setting": "[1]; Krebs cycle, plasma", "value": "Yes (2/2)"}, {"measurement": "bile salt pathway disturbance", "setting": "[1]; MIA model", "value": "not restored"}, {"measurement": "Pathway normalized by single-dose suramin treatment", "setting": "[1]; Microbiome metabolism, plasma", "value": "Yes (6/6)"}, {"measurement": "Pathway normalized by single-dose suramin treatment", "setting": "[1]; Oxalate, glyxoylate metabolism, plasma", "value": "Yes (2/2)"}, {"measurement": "Pathway normalized by single-dose suramin treatment", "setting": "[1]; Phospholipid metabolism, plasma", "value": "Yes (4/4)"}, {"measurement": "Pathway normalized by single-dose suramin treatment", "setting": "[1]; Purine metabolism, (metabolites normalized/discriminating), plasma 2 days after single dose", "value": "Yes (9/11)"}, {"measurement": "Pathway normalized by single-dose suramin treatment", "setting": "[1]; Pyrimidine metabolism, plasma", "value": "Yes (1/1)"}, {"measurement": "Pathway normalized by single-dose suramin treatment", "setting": "[1]; SAM, SAH, methionine, cysteine, glutathione metabolism, plasma", "value": "Yes (1/1)"}, {"measurement": "Pathway normalized by single-dose suramin treatment", "setting": "[1]; Sphingolipid metabolism, plasma", "value": "Yes (4/4)"}, {"measurement": "Pathway normalized by single-dose suramin treatment", "setting": "[1]; Thyroxine metabolism, plasma", "value": "Yes (1/1)"}, {"measurement": "Pathway normalized by single-dose suramin treatment", "setting": "[1]; Tryptophan metabolism, plasma", "value": "Yes (1/1)"}, {"measurement": "Pathway normalized by single-dose suramin treatment", "setting": "[1]; Vitamin B2 (riboflavin) metabolism, plasma", "value": "Yes (1/1)"}, {"measurement": "Pathway normalized by single-dose suramin treatment", "setting": "[1]; Vitamin B3 (niacin/NAD) metabolism, plasma", "value": "Yes (1/1)"}, {"measurement": "differences in metabolic profile between control and MIA animals", "setting": "[1]; plasma 2 days after single dose suramin 20 mg kg^−1 i.p.", "value": "substantially normalized; also recorded: drives the metabolism of MIA animals (PIC-Sal) strongly in the direction of controls"}, {"measurement": "plasma half-life", "setting": "[2]", "value": 1, "unit": "week"}, {"measurement": "social abnormalities", "setting": "[3]; 6.5-month-old MIA adults, single dose suramin 20 mg kg^−1 i.p.", "value": "completely reversed"}, {"measurement": "social behavior five weeks after suramin washout", "setting": "[3]; MIA animals, 5 weeks after single dose", "value": "small residual benefit"}, {"measurement": "novelty preference five weeks after suramin washout", "setting": "[4]; 5 weeks after single dose", "value": "no residual benefit remained"}, {"measurement": "deficient novelty preference (spontaneous alternation in T-maze)", "setting": "[4]; single dose of suramin", "value": "normalized"}]}]}
